Laboratory results as given in ChEMBL document CHEMBL1153992, “2-Azidoalkoxy-7-hydro-8-oxoadenine derivatives as TLR7 agonists inducing dendritic cell maturation” (Bioorg Med Chem Lett, 2009).
Active and inactive are the calls of the source. The calls are words filed in the database; no cut-off is given here.

biological target: T1, Toll-like receptor 7 (Mus musculus) (UniProt P58681); assay: Induction of TLR7 receptor-mediated C57BL/6 mouse BMD cells activation assessed as upregulation of MHC class-2 at 1 uM after 48 hrs by flow cytometry; format: cell-based
T1 sequence (whole entry): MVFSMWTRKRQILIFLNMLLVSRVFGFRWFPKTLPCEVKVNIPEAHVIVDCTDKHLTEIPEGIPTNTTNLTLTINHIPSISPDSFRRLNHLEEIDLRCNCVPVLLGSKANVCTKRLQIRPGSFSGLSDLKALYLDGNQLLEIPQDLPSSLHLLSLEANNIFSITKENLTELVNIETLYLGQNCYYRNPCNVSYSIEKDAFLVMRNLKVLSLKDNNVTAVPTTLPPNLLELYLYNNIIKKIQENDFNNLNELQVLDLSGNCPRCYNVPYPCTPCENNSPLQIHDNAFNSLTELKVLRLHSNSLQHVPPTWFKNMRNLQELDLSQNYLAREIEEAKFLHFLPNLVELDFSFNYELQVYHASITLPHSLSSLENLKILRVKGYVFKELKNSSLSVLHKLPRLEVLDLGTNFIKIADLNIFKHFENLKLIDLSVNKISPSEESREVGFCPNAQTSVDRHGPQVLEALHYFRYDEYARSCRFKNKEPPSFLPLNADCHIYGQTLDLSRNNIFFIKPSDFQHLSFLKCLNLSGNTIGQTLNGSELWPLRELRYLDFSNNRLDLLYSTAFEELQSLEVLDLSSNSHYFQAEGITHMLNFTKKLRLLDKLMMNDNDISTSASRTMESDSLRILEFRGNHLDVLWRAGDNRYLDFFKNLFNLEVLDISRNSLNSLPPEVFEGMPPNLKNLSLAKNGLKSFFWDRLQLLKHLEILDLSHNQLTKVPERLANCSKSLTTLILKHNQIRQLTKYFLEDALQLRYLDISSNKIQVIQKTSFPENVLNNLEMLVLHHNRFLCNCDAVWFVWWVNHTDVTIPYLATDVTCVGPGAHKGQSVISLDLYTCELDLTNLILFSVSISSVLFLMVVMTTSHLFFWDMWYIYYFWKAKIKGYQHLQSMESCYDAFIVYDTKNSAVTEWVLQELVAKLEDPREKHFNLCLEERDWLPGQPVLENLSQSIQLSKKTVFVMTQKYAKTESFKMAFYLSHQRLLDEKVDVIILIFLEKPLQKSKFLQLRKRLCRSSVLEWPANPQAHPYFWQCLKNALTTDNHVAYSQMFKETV

Row | Activity | SMILES
1 | Active | [N-]=[N+]=NCCCCOc1nc(N)c2[nH]c(=O)n(Cc3ccccc3)c2n1
2 | Active | [N-]=[N+]=NCCOc1nc(N)c2[nH]c(=O)n(Cc3ccccc3)c2n1
3 | inactive | [N-]=[N+]=NCCOCCOCCOc1nc(N)c2[nH]c(=O)n(Cc3ccccc3)c2n1
4 | Active | CCOCc1nc2c(N)nc3ccccc3c2n1CC(C)(C)O
5 | Active | [N-]=[N+]=NCCOCCOc1nc(N)c2[nH]c(=O)n(Cc3ccccc3)c2n1
6 | Active | [N-]=[N+]=NCCCCCOc1nc(N)c2[nH]c(=O)n(Cc3ccccc3)c2n1
7 | Active | [N-]=[N+]=NCCCCCCOc1nc(N)c2[nH]c(=O)n(Cc3ccccc3)c2n1
8 | Active | COCCOc1nc(N)c2[nH]c(=O)n(Cc3ccccc3)c2n1
9 | Active | [N-]=[N+]=NCCCOc1nc(N)c2[nH]c(=O)n(Cc3ccccc3)c2n1
10 | Active | CCCCOc1nc(N)c2[nH]c(=O)n(Cc3ccccc3)c2n1

biological target: T1, Toll-like receptor 7 (Mus musculus); assay: Induction of TLR7 receptor-mediated C57BL/6 mouse BMD cells activation assessed as upregulation of CD40 at 1 uM after 48 hrs by flow cytometry; format: cell-based

Row | Activity | SMILES
11 | Active | [N-]=[N+]=NCCCCOc1nc(N)c2[nH]c(=O)n(Cc3ccccc3)c2n1
12 | Active | [N-]=[N+]=NCCOc1nc(N)c2[nH]c(=O)n(Cc3ccccc3)c2n1
13 | inactive | [N-]=[N+]=NCCOCCOCCOc1nc(N)c2[nH]c(=O)n(Cc3ccccc3)c2n1
14 | Active | CCOCc1nc2c(N)nc3ccccc3c2n1CC(C)(C)O
15 | Active | [N-]=[N+]=NCCOCCOc1nc(N)c2[nH]c(=O)n(Cc3ccccc3)c2n1
16 | Active | [N-]=[N+]=NCCCCCOc1nc(N)c2[nH]c(=O)n(Cc3ccccc3)c2n1
17 | Active | [N-]=[N+]=NCCCCCCOc1nc(N)c2[nH]c(=O)n(Cc3ccccc3)c2n1
18 | Active | COCCOc1nc(N)c2[nH]c(=O)n(Cc3ccccc3)c2n1
19 | Active | [N-]=[N+]=NCCCOc1nc(N)c2[nH]c(=O)n(Cc3ccccc3)c2n1
20 | Active | CCCCOc1nc(N)c2[nH]c(=O)n(Cc3ccccc3)c2n1

biological target: T1, Toll-like receptor 7 (Mus musculus); assay: Induction of TLR7 receptor-mediated C57BL/6 mouse BMD cells activation assessed as IL12 production at 5 uM after 24 hrs by ELISA; format: cell-based

Row | Activity | SMILES
21 | Active | [N-]=[N+]=NCCCCOc1nc(N)c2[nH]c(=O)n(Cc3ccccc3)c2n1
22 | Active | [N-]=[N+]=NCCOc1nc(N)c2[nH]c(=O)n(Cc3ccccc3)c2n1
23 | Active | CCOCc1nc2c(N)nc3ccccc3c2n1CC(C)(C)O
24 | Active | [N-]=[N+]=NCCOCCOc1nc(N)c2[nH]c(=O)n(Cc3ccccc3)c2n1
25 | Active | [N-]=[N+]=NCCCCCOc1nc(N)c2[nH]c(=O)n(Cc3ccccc3)c2n1
26 | Active | [N-]=[N+]=NCCCCCCOc1nc(N)c2[nH]c(=O)n(Cc3ccccc3)c2n1
27 | Active | COCCOc1nc(N)c2[nH]c(=O)n(Cc3ccccc3)c2n1
28 | Active | [N-]=[N+]=NCCCOc1nc(N)c2[nH]c(=O)n(Cc3ccccc3)c2n1
29 | Active | CCCCOc1nc(N)c2[nH]c(=O)n(Cc3ccccc3)c2n1

biological target: T1, Toll-like receptor 7 (Mus musculus); assay: Induction of TLR7 receptor-mediated C57BL/6 mouse BMD cells activation assessed as IL12 production at 10 nM after 24 hrs by ELISA; format: cell-based

Row | Activity | SMILES
30 | Active | CCCCOc1nc(N)c2[nH]c(=O)n(Cc3ccccc3)c2n1

biological target: T1, Toll-like receptor 7 (Mus musculus); assay: Induction of TLR7 receptor-mediated C57BL/6 mouse BMD cells activation assessed as upregulation of CD86 at 1 uM after 48 hrs by flow cytometry; format: cell-based

Row | Activity | SMILES
31 | Active | [N-]=[N+]=NCCCCOc1nc(N)c2[nH]c(=O)n(Cc3ccccc3)c2n1
32 | Active | [N-]=[N+]=NCCOc1nc(N)c2[nH]c(=O)n(Cc3ccccc3)c2n1
33 | inactive | [N-]=[N+]=NCCOCCOCCOc1nc(N)c2[nH]c(=O)n(Cc3ccccc3)c2n1
34 | Active | CCOCc1nc2c(N)nc3ccccc3c2n1CC(C)(C)O
35 | Active | [N-]=[N+]=NCCOCCOc1nc(N)c2[nH]c(=O)n(Cc3ccccc3)c2n1
36 | Active | [N-]=[N+]=NCCCCCOc1nc(N)c2[nH]c(=O)n(Cc3ccccc3)c2n1
37 | Active | [N-]=[N+]=NCCCCCCOc1nc(N)c2[nH]c(=O)n(Cc3ccccc3)c2n1
38 | Active | COCCOc1nc(N)c2[nH]c(=O)n(Cc3ccccc3)c2n1
39 | Active | [N-]=[N+]=NCCCOc1nc(N)c2[nH]c(=O)n(Cc3ccccc3)c2n1
40 | Active | CCCCOc1nc(N)c2[nH]c(=O)n(Cc3ccccc3)c2n1

biological target: T1, Toll-like receptor 7 (Mus musculus); assay: Induction of TLR7 receptor-mediated C57BL/6 mouse BMD cells activation assessed as IL12 production at 0.1 uM after 24 hrs by ELISA; format: cell-based

Row | Activity | SMILES
41 | Active | [N-]=[N+]=NCCOc1nc(N)c2[nH]c(=O)n(Cc3ccccc3)c2n1
42 | Active | [N-]=[N+]=NCCCOc1nc(N)c2[nH]c(=O)n(Cc3ccccc3)c2n1
